≈ marks a conversion by molar mass, not a printed value. Entries after “also recorded” stand apart in the source; their conditions may differ.
Key:
[1] = ITC sterol binding, POPC LUVs containing 10% cholesterol
Experimental: Isothermal Titration calorimetry (ITC)
In an optimized isothermal titration calorimetry (ITC)-based assay, an aqueous solution of AmB was titrated with a suspension of large unilamellar vesicles (LUVs) comprised of only 1-palmitoyl-2-oleoyl-sn-glycero-3-phosphocholine (POPC), and the net exotherm was recorded. The titration was repeated using POPC LUVs containing 10% ergosterol. […] The titration was repeated using C2′epiAmB. […] The ITC assay was also conducted with cholesterol in place of ergosterol.
Experiments were performed using a NanoITC isothermal titration calorimeter (TA Instruments, Wilmington, Del.). Solutions of the compounds to be tested were prepared by diluting a 60.0 mM stock solution of the compound in DMSO to 600 μM with K buffer (5.0 mM HEPES/KHEPES, pH=7.4). The final DMSO concentration in the solution was 1% v/v. Large unilamellar vesicles comprised of only 1-palmitoyl-2-oleoyl-sn-glycero-3-phosphocholine (POPC LUVs) were prepared and phosphorus and ergosterol content was quantified as described below. The LUV solutions were diluted with buffer and DMSO to give a final phospholipid concentration of 12.0 mM in a 1% DMSO/K buffer solution. Immediately prior to use, all solutions were incubated at 37° C. for 30 minutes and degassed under vacuum at 37° C. for 10 minutes. The reference cell of the instrument (volume=0.190 mL) was filled with a solution of 1% v/v DMSO/K buffer.
Palmitoyl oleoyl phosphatidylcholine (POPC) was obtained as a 20 mg/mL solution in CHCl3 from Avanti Polar Lipids (Alabaster, Ala.) and was stored at −20° C. under an atmosphere of dry argon and used within 1 month. A 4 mg/mL solution of ergosterol in CHCl3 was prepared monthly and stored at 4° C. under an atmosphere of dry argon. […]
NanoAnalyze software (TA Instruments) was used for baseline determination and integration of the injection heats, and Microsoft Excel was used for subtraction of dilution heats and the calculation of overall heat evolved. […] By this method, the overall heat evolved during the experiment was calculated using the following formula: […]

C. albicans = assay: Broth microdilution MIC assay; assay type: cell-based; conditions: Candida albicans, 24 hours, 37° C., no visible growth
Experimental: (§1) Exemplary methods for antifungal activity assays are as follows:
C. albicans was cultured in a similar manner to S. cerevisiae except both liquid and solid cultures were incubated at 37° C.
The protocol for the broth microdilution assay was adapted from the Clinical and Laboratory Standards Institute document M27-A2. Clinical and Laboratory Standards Institute. Reference Method for Broth Dilution Antifungal Susceptibility Testing, M27-A2, Approved Standard 2nd Ed. Vol. 22, Number 15, 2002. 50 mL of YPD media was inoculated and incubated overnight at either 30° C. (S. cerevisiae) or 37° C. (C. albicans) in a shaker incubator. The cell suspension was then diluted with YPD to an OD600 of 0.10 (˜5×10^5 cfu/mL) as measured by a Shimadzu (Kyoto, Japan) PharmaSpec UV-1700 UV/Vis spectrophotometer. The solution was diluted 10-fold with YPD, and 195 μL aliquots of the dilute cell suspension were added to sterile Falcon (Franklin Lakes, N.J.) Microtest 96-well plates in triplicate. Compounds were prepared either as […] (AmB, C2′deOAmB) or 2 mM (AmdeB) stock solutions in DMSO and serially diluted to the following concentrations with DMSO: 1600, 1200, 800, 400, 320, 240, 200, 160, 120, 80, 40, 20, 10 and 5 μM. 5 μL aliquots of each solution were added to the 96-well plate in triplicate, with each column representing a different concentration of the test compound. […]

S. cerevisiae = assay: Broth microdilution MIC assay; assay type: cell-based; conditions: Saccharomyces cerevisiae, 24 hours, 30° C., no visible growth
Experimental: as §1
S. cerevisiae was maintained with yeast peptone dextrose (YPD) growth media consisting of 10 g/L yeast extract, 20 g/L peptone, 20 g/L dextrose, and 20 g/L agar for solid media. The media was sterilized by autoclaving at 250° F. for 30 min. Dextrose was subsequently added as a sterile 40% w/v solution in water (dextrose solutions were filter sterilized). Solid media was prepared by pouring sterile media containing agar (20 g/L) onto Corning (Corning, N.Y.) 100×20 mm polystyrene plates. Liquid cultures were incubated at 30° C. on a rotary shaker and solid cultures were maintained at 30° C. in an incubator.
The protocol for the broth microdilution assay was adapted from the Clinical and Laboratory Standards Institute document M27-A2. Clinical and Laboratory Standards Institute. Reference Method for Broth Dilution Antifungal Susceptibility Testing, M27-A2, Approved Standard 2nd Ed. Vol. 22, Number 15, 2002. 50 mL of YPD media was inoculated and incubated overnight at either 30° C. (S. cerevisiae) or 37° C. (C. albicans) in a shaker incubator. The cell suspension was then diluted with YPD to an OD600 of 0.10 (˜5×10^5 cfu/mL) as measured by a Shimadzu (Kyoto, Japan) PharmaSpec UV-1700 UV/Vis spectrophotometer. […]

Compound: C[C@@H]1[C@H](O)[C@@H](C)/C=C/C=C/C=C/C=C/C=C/C=C/C=C/[C@H](O[C@@H]2O[C@H](C)[C@@H](O)[C@H](N)[C@H]2O)CC2O[C@](O)(C[C@@H](O)C[C@@H](O)[C@H](O)CC[C@@H](O)C[C@@H](O)CC(=O)O[C@H]1C)C[C@H](O)[C@H]2C(=O)O [C2′epiAmB]
- Total exotherm ([1]; 10% cholesterol LUVs, 600 μM compound): -6.43 ± 2.80 µcal
- Binding to cholesterol (in words) ([1]; within the limits of the binding assay): but not cholesterol; also recorded: not found to bind to cholesterol; also recorded: do not bind cholesterol
- MIC (C. albicans): 2 µM (≈ 1.85 µg/mL)
- MIC (S. cerevisiae): 2 µM (≈ 1.85 µg/mL)
